Reference: ChEMBL document CHEMBL1126543, “1,24S-dihydroxy-26,27-cyclo-22-yne-vitamin D3: the side chain triple bond analogue of MC 903 (calcipotriol)” (Bioorg Med Chem Lett, 1993)
Activity calls are given as the source filed them. The rule behind the calls is not given here.

Tests used:
Rattus norvegicus [1] = assay: Tested for the effect on calcium homeostasis in rats dosed up to 100 ug/kg daily for 7 days; Compound was found to show no effect; format: functional, organism-based
Rattus norvegicus [2] = assay: Tested for the hypercalciuria effect at 0.5 ug/kg by 1,25-(OH)2D3 for 7 days up to 100 ug/kg; compound produced marked hypercalciuria at 0.5 ug/kg; format: functional, organism-based

C=C1/C(=C\C=C2/CCC[C@]3(C)[C@@H]([C@H](C)C#C[C@@H](O)C4CC4)CC[C@@H]23)C[C@@H](O)C[C@@H]1O
Activity (Rattus norvegicus [1]): inactive | Activity (Rattus norvegicus [2]): Marked hypercalciuria at 0.5 ug/kg
